Experimental data as given in US8617563B2, “Antichlamydial agents” (Duke University, priority 2011, dated 2013).
Entries after “also recorded” stand apart in the source; their conditions may differ. Where no end group is shown, it is not given here.

Key:
[1] = test system: Chlamydia-infected HeLa cells; assay: Inclusion integrity and vimentin cage by immunofluorescence and TEM; assay type: cell-based, C. trachomatis; conditions: for Vimentin re-organization / cage around the inclusion: infected HeLa cells treated with peptide
Procedure: (§1) FIG. 9 depicts (A) CPAF inhibitory peptides block the generation of Chlamydia infectious particles. L2-infected HeLa cells were treated at 12 hpi with increasing concentration of peptides. EBs were harvested at 30 hpi and inclusion-forming units (IFU) were quantified on fresh cell monolayers. (B-D) CPAF activity is required to maintain inclusion integrity. The integrity of the inclusion was determined by assessing the immunolocalization of the inclusion membrane marker IncA (red) and Chlamydia (green) (B) and by transmission electron microscopy (C). […] (D) The percentage of vimentin-positive inclusions was determined by IF in infected cells treated with SEQ ID NO:7 and SEQ ID NO:11 (12 hpi) peptides at 24 hpi. (E) Activation of inflammatory cytokines upon inhibition of CPAF activity. Levels of IL-8 supernatants from Chlamydia infected cells treated with peptides as in (B-D) were determined at 24 hpi by ELISA.
FIG. 19 depicts HeLa cells infected with C. trachomatis L2, treated with SEQ ID NO:11 and SEQ ID NO:7, and harvested at 30 hpi. (A) Immunofluorescence microscopy via staining with an anti-vimentin antibody (“vimentin”) and an anti-Chlamydia L2 antibody (“L2”). […] (B) Cells were lysed in the presence of protease inhibitors, resolved by SDS-PAGE, and subjected to immunoblot analysis. Vimentin, RpoD (bacterial loading control), and GAPDH (host loading control) were visualized with substrate-specific antibodies).
For routine indirect immunofluorescence, HeLa cells were grown on glass coverslips and infected with Chlamydia at an MOI of 1. At the indicated times post-infection, cells were fixed with cold 3% formaldehyde, permeabilized with 0.1% Tx-100, blocked in 2% bovine serum albumin (BSA), and incubated with primary antibody followed by secondary fluorophore-conjugated anti-rabbit or anti-mouse IgG (available from Molecular Probes). Host and Chlamydial DNA were stained with 1 μM Hoechst (available from Invitrogen). […]

[2] = test system: IL-8 secretion; assay: IL-8 secretion by infected HeLa cells (ELISA); assay type: cell-based, human; conditions: peptide 12.5 μM at 12 hpi, measured 24 hpi
Procedure: as §1
Next, the mechanism underlying the block in chlamydial replication was assessed by performing microscopy analyses of Chlamydia-infected cells treated with an inhibitor of CPAF (SEQ ID NO:7). […] IL-8 secretion into the media was determined with a Human IL-8 ELISA kit (available from BioLegend).

[3] = test system: C. caviae CPAF; assay: GST-IncC cleavage by lysate of C. caviae (GPIC) infected cells; assay type: biochemical; conditions: infected whole cell lysate
Procedure: (§2) Cells were infected with an MOI of 1 and treated with CPAF inhibitor (SEQ ID NO:7) or control (SEQ ID NO:11) peptides at 12 hpi, fixed at 24 hpi and analyzed by IF with anti-L2 polyclonal antisera. Inclusion size was determined by measuring the inclusion diameter in μm by confocal microscopy of 50 infected cells. The number of cells with fragmented inclusions was determined by counting the number of infected cells out of 50 with more than one inclusion. (C) Sequence alignment and % sequence identify of full length CPAF and predicted inhibitory peptide sequence between C. trachomatis serovar LGV-L2, Chlamydia muridarum, and Chlamydophila caviae was determined using Geneious software (available at the Geneious website). […] GPIC or C. muridarum infected whole cell protein lysate was preincubated with SEQ ID NO:7 peptide or SEQ ID NO:11 control peptide, mixed with GST-IncC at 37° C., resolved by SDS-PAGE and stained with Coomassie blue. […] Inhibition of C. muridarum (E) and C. ceviae (F) growth was determined by counting the number of recovered IFUs. […] Inclusions were detected by IF with anti-LGV-L2 (A, B, E) antisera or anti-chlamydial LPS (F) monoclonal antibodies, and host nuclei sere detected by staining.

[4] = test system: C. muridarum; assay: C. muridarum growth in HeLa cells (recovered IFUs); assay type: cell-based; conditions: infected HeLa cells, recovered IFUs
Procedure: as §2

[5] = test system: Chlamydia-infected HeLa cells; assay: Apoptosis markers (AnnexinV staining, Caspase-3 cleavage) in infected HeLa cells; assay type: cell-based, C. trachomatis; conditions: peptide 12.5 μM at 12 hpi
Procedure: FIG. 11 depicts (A) that inhibiting CPAF activity induces host cell death. The indicated peptides (anti-CPAF peptide refers to SEQ ID NO:7) were added to infected cells 12 hpi and the percentage of infected cells with condensed nuclei was quantified at the indicated times. (B-C) Inhibition of CPAF activity induces apoptosis. Infected cells were treated with peptides and the percentage of AnnexinV-FITC positive (propidium iodide (PI) negative) was determined by flow cytometry (B). In parallel samples, cleavage of Caspase-3, a hallmark of apoptosome activation, was monitored by immunoblot analysis. Actin and MOMP are host and bacterial loading controls respectively. […] Infected cells were treated as in (A) in the presence or absence of ZVAD-FMK, labeled with PI and analyzed by flow cytometry. […]
Subsequent experiments tested whether CPAF inhibition led to the onset of apoptosis in infected cells. […] Apoptotic cells were identified with an AnnexinV-FLOUS Staining Kit (available from Roche) and activation of Caspase-1 was determined by labeling active Caspase-1 with a Carboxyfluorescein FLICA Detection Kit (available from Immunochemistry) and analyzed in a FACScanner (available from BD Biosciences). […] Consistent with result, Caspase-3 cleavage, another characteristic of apoptotic cell death, was not detected (FIG. 11C).

## SLFYSPMVPHFWAELRNHYATSGLKRRRRRRRRR-NH2 [SEQ ID NO:7]
[1]
  Vimentin re-organization / cage around the inclusion: loss of vimentin re-organization around the inclusion; also recorded: increased disorder in the position of the vimentin cage
[1]; listed as peptide 4
  Vimentin re-organization / cage around the inclusion: loss of the vimentin cage
[1]; prolonged treatment (>8 h)
  Inclusion structure integrity (IncA, Cap1 localisation): collapse of the inclusion structure
[2]
  IL-8 secretion: increased IL-8 secretion
[3]
  Inhibition of C. caviae CPAF: not sensitive to inhibition; also recorded: but not C. ceviae CPAF
[4]
  C. muridarum replication: blocked C. muridarum replication; also recorded: impairs growth in C. muridarum
[5]
  AnnexinV staining of infected cells: did not stain for AnnexinV
[5]; immunoblot
  Caspase-3 cleavage in infected cells: not detected
